Measured values as given in article PMC9977937, “Molecular insights into the catalytic mechanism of plasticizer degradation by a monoalkyl phthalate hydrolase” (Communications Chemistry, 2023).

Key:
MehpH = target: T1, MehpH (Gordonia sp. P8219, UniProt Q2MHH5); test: HPLC of MBP and PA at […] nm; assay type: biochemical; conditions: 1.0 mM MBP, 1.0 µM enzyme, 10% DMSO
T1 construct: synthetic gene in pET30a, His-tagged, E. coli BL21(DE3)
T1 sequence (Q2MHH5 1-311): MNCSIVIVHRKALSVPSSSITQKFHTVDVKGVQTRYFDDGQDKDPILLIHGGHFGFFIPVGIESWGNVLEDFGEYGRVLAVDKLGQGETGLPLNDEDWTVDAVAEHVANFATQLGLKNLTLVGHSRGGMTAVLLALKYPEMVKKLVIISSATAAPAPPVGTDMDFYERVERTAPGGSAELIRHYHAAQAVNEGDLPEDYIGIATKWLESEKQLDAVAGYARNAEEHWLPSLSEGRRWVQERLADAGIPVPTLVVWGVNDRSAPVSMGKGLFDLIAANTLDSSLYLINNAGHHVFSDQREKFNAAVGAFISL

[1] = target: T2, MehpH (crystallization construct) (Gordonia sp. P8219, UniProt Q2MHH5, D259N); test: X-ray crystallography, […] Å; assay type: binding; conditions: pH 6.2, 16 °C
T2 construct: N-terminal 23 residues deleted (core 24-152 and 225-311, lid 153-224), His-tagged, pET30a, E. coli BL21(DE3); four molecules per asymmetric unit
T2 sequence (Q2MHH5 entry or part of it D259N): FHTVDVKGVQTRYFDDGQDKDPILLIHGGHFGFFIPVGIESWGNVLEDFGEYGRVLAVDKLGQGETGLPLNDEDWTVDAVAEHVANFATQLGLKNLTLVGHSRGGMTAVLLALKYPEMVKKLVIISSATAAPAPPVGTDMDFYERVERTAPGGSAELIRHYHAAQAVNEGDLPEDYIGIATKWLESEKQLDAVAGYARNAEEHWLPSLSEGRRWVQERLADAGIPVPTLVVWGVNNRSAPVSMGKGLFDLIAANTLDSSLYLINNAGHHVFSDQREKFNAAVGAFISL

CCCCOC(=O)c1ccccc1C(=O)O [MBP, monobutyl phthalate]
HPLC of MBP and PA at 254 nm (MehpH): Hydrolytic activities of MehpH and its variants using MBP as substrate

O=C(O)c1ccccc1C(=O)O [PA, phthalic acid]
X-ray crystallography, 2.8 Å ([1]; covalent ester with Ser125 (acyl-enzyme intermediate), crystals of the D259N mutant with MBP): The shape of the electron density is consistent with that of PA

CCCCO [butanol]
X-ray crystallography, 2.8 Å ([1]; non-covalent, in penetrating tunnel next to active site, one of four molecules, crystals with MBP): we discovered the electron density of butanol in the penetrating tunnel
